Laboratory results as given in US20250248970A1, “NOVEL SUBSTITUTED FLUORINATED N-PROPYL-PYRROLIDINE COMPOUNDS, PROCESSES FOR THEIR PREPARATION AND THERAPEUTIC USES THEREOF” (SANOFI, priority 2022, published 2025).

Target: T1, ERα (Homo sapiens, UniProt P03372)
T1 construct: host or cells: MCF7
T1 sequence (P03372 1-595): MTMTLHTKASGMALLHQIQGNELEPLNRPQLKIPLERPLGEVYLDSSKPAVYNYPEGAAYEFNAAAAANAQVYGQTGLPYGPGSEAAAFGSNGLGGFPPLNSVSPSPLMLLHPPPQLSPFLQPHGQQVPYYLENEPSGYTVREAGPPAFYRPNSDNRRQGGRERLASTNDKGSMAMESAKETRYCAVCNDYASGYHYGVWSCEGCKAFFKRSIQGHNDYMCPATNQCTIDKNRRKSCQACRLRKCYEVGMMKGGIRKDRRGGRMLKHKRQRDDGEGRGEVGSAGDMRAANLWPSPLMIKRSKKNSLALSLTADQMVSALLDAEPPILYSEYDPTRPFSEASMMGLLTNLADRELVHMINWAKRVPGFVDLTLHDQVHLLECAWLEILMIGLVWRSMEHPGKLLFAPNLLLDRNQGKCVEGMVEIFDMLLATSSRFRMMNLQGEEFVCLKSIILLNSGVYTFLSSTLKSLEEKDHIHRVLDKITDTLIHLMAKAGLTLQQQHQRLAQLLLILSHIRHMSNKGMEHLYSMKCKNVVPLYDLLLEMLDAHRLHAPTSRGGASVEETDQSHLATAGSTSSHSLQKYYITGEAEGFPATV
Experiment: Estrogen receptor degradation activity (breast cancer cell ERα in cell western assay)
Format: cell-based
Conditions: MCF7 cells, 0.3 μM, 4 hours, % of ERα levels decrease relative to fulvestrant
Protocol: Said test involves measuring the in vitro degradation activity of the compounds of the Table 1a.
The measurements of the degradation activities were made using a breast cancer cell ERα in cell western assay as described hereunder.
MCF7 cells (ATCC) were seeded in 384 wells microplate (collagen coated) at a concentration of 10000 cells/30 μL per well in red phenol free MEM alpha medium (invitrogen) containing 5% charcoal dextran striped FBS. The following day, 9 points serial 1:5 dilution of each compound was added to the cells in 2.5p L at final concentrations ranging from 0.3-0.0000018 μM (in table 2), or 0.1 μM for fulvestrant (using as positive control). At 4 hours post compound addition the cells were fixed by adding 25 μL of formalin (final concentration 5% formalin containing 0.1% triton) for 10 minutes at room temperature and then washed twice with PBS. Then, 50 μL of LI-COR blocking buffer containing 0.1% Triton was added to plate for 30 minutes at room temperature. LI-COR blocking buffer was removed and cells were incubated overnight at cold room with 50 μL anti-ER rabbit monoclonal antibody (Thermo scientific MA1-39540) diluted at 1:1000 in LI-COR blocking buffer containing 0.1% tween-20. Wells which were treated with blocking buffer but no antibody were used as background control. Wells were washed twice with PBS (0.1% tween-20) and incubated at 37° C. for 60 minutes in LI-COR (0.1% tween-20) containing goat anti-rabbit antibody Alexa 488 (1:1000) and Syto-64 a DNA dye (2 μM final concentration). Cells were then washed 3 times in PBS and scanned in ACUMEN explorer (TTP-Labtech). Integrated intensities in the green fluorescence and red fluorescence were measured to determine the levels of ERα and DNA respectively.
The degradation activity with respect to estrogen receptors in this test is given by the concentration which degrades 50% of the estrogen receptor (or IC50) in nM.
The % of ERα levels decrease were determined as follows: % inhibition=100*(1−(sample−fulvestrant: DMSO−fulvestrant)).

Row | Structure (SMILES) | % Degradation At 0.3 μM
1 | CC1CCc2cc(C(=O)O)ccc2C(c2ccc(CC3CCN(CCCF)C3)cc2)=C1c1ccc(C(F)(F)F)cc1 (single isomer, unassigned; isomer 1) [Compound 41, 9-(4-((1-(3-fluoropropyl)pyrrolidin-3-yl)methyl)phenyl)-7-methyl-8-(4-(trifluoromethyl)phenyl)-6,7-dihydro-5H-benzo[7]annulene-3-carboxylic acid, Isomer 1] | 100%
2 | Cl.O=C(O)c1ccc2c(c1)CCCC(c1cccc(C(F)(F)F)c1)=C2c1ccc(CC2CCN(CCCF)C2)cc1 (single isomer, unassigned; isomer 1) [Compound 39, 9-(4-((1-(3-fluoropropyl)pyrrolidin-3-yl)methyl)phenyl)-8-(3-(trifluoromethyl)phenyl)-6,7-dihydro-5H-benzo[7]annulene-3-carboxylic acid hydrochloride, Isomer 1] | 76%
3 | O=C(O)c1ccc2c(c1)CCCC(c1ccc(F)cc1C(F)(F)F)=C2c1ccc(CC2CCN(CCCF)C2)cc1 (single isomer, unassigned; isomer 1) [Compound 18, 8-(4-fluoro-2-(trifluoromethyl)phenyl)-9-(4-((1-(3-fluoropropyl)pyrrolidin-3-yl)methyl)phenyl)-6,7-dihydro-5H-benzo[7]annulene-3-carboxylic acid, Isomer 1] | 86%
4 | Cc1c(F)cccc1C1=C(c2ccc(CC3CCN(CCCF)C3)cc2)c2ccc(C(=O)O)cc2CCC1.Cl (single isomer, unassigned; isomer 1) [Compound 20, 8-(3-fluoro-2-methylphenyl)-9-(4-((1-(3-fluoropropyl)pyrrolidin-3-yl)methyl)phenyl)-6,7-dihydro-5H-benzo[7]annulene-3-carboxylic acid hydrochloride, Isomer 1] | 90%
5 | Cl.O=C(O)c1ccc2c(c1)OCCC(c1ccc(Cl)cc1Cl)=C2c1ccc(CC2CCN(CCCF)C2)cc1 (single isomer, unassigned; isomer 1) [Compound 7, 4-(2,4-dichlorophenyl)-5-(4-((1-(3-fluoropropyl)pyrrolidin-3-yl)methyl)phenyl)-2,3-dihydrobenzo[b]oxepine-8-carboxylic acid hydrochloride, Isomer 1] | 80%
6 | O=C(O)C(F)(F)F.O=C(O)c1ccc2c(c1)CCCC(c1ccc(Cl)cc1Cl)=C2c1ccc(CC2(F)CCN(CCCF)C2)cc1 (single isomer, unassigned; isomer 1) [Compound 23, 8-(2,4-dichlorophenyl)-9-(4-((3-fluoro-1-(3-fluoropropyl)pyrrolidin-3-yl)methyl)phenyl)-6,7-dihydro-5H-benzo[7]annulene-3-carboxylic acid, 2,2,2-trifluoroacetic acid, Isomer 1] | 69%
7 | O=C(O)c1ccc2c(c1)CCCC(c1ccc(Cl)cc1Cl)=C2c1ccc(CC2CCN(CCC(F)F)C2)cc1 (single isomer, unassigned; isomer 1) [Compound 9, 8-(2,4-dichlorophenyl)-9-(4-((1-(3,3-difluoropropyl)pyrrolidin-3-yl)methyl)phenyl)-6,7-dihydro-5H-benzo[7]annulene-3-carboxylic acid, Isomer 1] | 80%
8 | CC1CCc2cc(C(=O)O)ccc2C(c2ccc(CC3CCN(CCCF)C3)cc2)=C1c1ccc(C(F)(F)F)cc1 (single isomer, unassigned; isomer 2) [Compound 42, 9-(4-((1-(3-fluoropropyl)pyrrolidin-3-yl)methyl)phenyl)-7-methyl-8-(4-(trifluoromethyl)phenyl)-6,7-dihydro-5H-benzo[7]annulene-3-carboxylic acid, Isomer 2] | 90%
9 | Cc1cccc(C2=C(c3ccc(CC4CCN(CCC(F)F)C4)cc3)c3ccc(C(=O)O)cc3CCC2)c1C(F)(F)F.Cl (single isomer, unassigned; isomer 1) [Compound 34, 9-(4-((1-(3,3-difluoropropyl)pyrrolidin-3-yl)methyl)phenyl)-8-(3-methyl-2-(trifluoromethyl)phenyl)-6,7-dihydro-5H-benzo[7]annulene-3-carboxylic acid hydrochloride, Isomer 1] | 85%
